# Test results reported in US12527849B2, “Apparatus for determining administration form of a composition of an engineered virus-based nanoparticle for a treatment of an autoimmune condition” (Diamante Srl, priority 2021, dated 2026).
# Test system: TNF-α
# Assay: Cytokine ELISA in CIA mice, day 60: TNF-α
# Type: in vivo
# Excerpt: With continued reference to FIG. 1, in some embodiments, administration 116 may be done to an animal. As a non-limiting example, the animal may include a mouse, a fish, a rabbit, human, and the like. As a non-limiting example, administration 116 of composition of the engineered virus-based nanoparticle for a treatment of an autoimmune condition may be done to dilute, brown, and non-agouti (DBA) mice based on their susceptibility to collagen-induced arthritis (CIA). Female DBA/1 mice 6 to 8 weeks of age may be maintained under specific pathogen-free conditions. CIA may be induced by the intradermal tail base injection of 100 μg of chicken type II collagen (Sigma-Aldrich) as previously described. Five mice per group may be immunized on days 0 and 21 to induce arthritis. The onset of disease may be confirmed on the day that swelling or erythema may be observed in any paw, typically 4 to 10 days after the second immunization. […] CIA may be assessed using a macroscopic score system based on the visual identification of arthritic limbs. The clinical severity of arthritis may be evaluated as follows: Each mouse may be inspected every 2 to 3 days for three different parameters: (i) swelling of the hind ankle and foot, measured with calipers; (ii) erythema of each leg; and (iii) swelling of the fingers. The RA index for each mouse was expressed as the mean of the three scores from the individual parameters. At the end of the experiment (60 days), we determined the proportion of CD25+Foxp3+ cells in the lymph nodes and measured cytokine titers in the lymph nodes, joints, and serum.
# With continued reference to FIG. 1, in some embodiments, processor 104 may determine critical administration 124 as a function of a cytokine profile and a proportion of CD25^+ Foxp3^+ cells. […] In some embodiments, to quantify cytokines in DBA mice, joint tissues may be pulverized and resuspended in 1 ml of lysis medium per 100-mg joint weight for 60 min at 37′C, followed by centrifugation to remove debris. […]
structure (smiles),measurement,setting,value
"C[C@@H]1C[C@H]2[C@@H]3CCC4=CC(=O)C=C[C@]4(C)[C@@]3(F)[C@@H](O)C[C@]2(C)[C@@]1(O)C(=O)CO [Dexamethasone, dexamethasone]",TNF-α J,"joint supernatant, CIA mice, day 60, mean n=3",49.20 pg/mL
same,TNF-α LN,"lymph node supernatant, CIA mice, day 60, mean n=3",107.90 pg/mL
same,TNF-α S,"serum pooled from five CIA mice, day 60",24.2 pg/mL
